Laboratory results reported in ChEMBL document CHEMBL1142355, “Antimalarial dual drugs based on potent inhibitors of glutathione reductase from Plasmodium falciparum” (J Med Chem, 2008).

What was measured:
KB = experiment: Cytotoxicity against human KB cells by alamar blue assay; format: functional, cell-based; details: for CC50: read-out: TD50 (the source's name)
Plasmodium falciparum [1] = experiment: Antiparasitic activity against chloroquine-sensitive Plasmodium falciparum 3D7; format: functional, organism-based
Plasmodium falciparum [2] = experiment: Antiparasitic activity against chloroquine-resistant Plasmodium falciparum K1; format: functional, organism-based
Plasmodium falciparum [3] = experiment: microbe, parasite or virus in culture; details: 3 h
Description: Antiparasitic activity against chloroquine-sensitive Plasmodium falciparum by [3H]hypoxanthine incorporation

Plasmodium falciparum [4] = experiment: Relative IC50 against Plasmodium falciparum K1 and 3D7; format: functional
Plasmodium berghei [5] = experiment: Reduced parasitemia in Plasmodium berghei ANKA infected BALB/c mice (Mus musculus) at 30 mg/kg intraperitoneal dose after 4 days; format: functional; parameters: scale not given: the % may be the effect or the level left
Plasmodium berghei [6] = experiment: Antimalarial activity against Plasmodium berghei ANKA infected BALB/c mice (Mus musculus) at 30 mg/kg intraperitoneal dose after 4 days; format: functional; details: ip, 96 h
Plasmodium berghei [7] = experiment: Antimalarial 95% clearance activity against Plasmodium berghei ANKA infected BALB/c mice (Mus musculus) at 30 mg/kg intraperitoneal dose after 4 days; format: functional
Plasmodium berghei [8] = experiment: Antimalarial activity against Plasmodium berghei ANKA infected BALB/c mice (Mus musculus) at 21 mg/kg intraperitoneal dose after 4 days; format: functional; details: ip, 96 h
Plasmodium berghei [9] = experiment: Antimalarial 95% clearance activity against Plasmodium berghei ANKA infected BALB/c mice (Mus musculus) at 21 mg/kg intraperitoneal dose after 4 days; format: functional
Plasmodium berghei [10] = experiment: Reduced parasitemia in Plasmodium berghei ANKA infected BALB/c mice (Mus musculus) at 21 mg/kg intraperitoneal dose after 4 days; format: functional; parameters: scale not given: the % may be the effect or the level left
Plasmodium berghei [11] = experiment: Antimalarial activity against Plasmodium berghei ANKA infected BALB/c mice (Mus musculus) at 10 mg/kg peroral dose after 4 days; format: functional; details: 96 h, route oral
Plasmodium berghei [12] = experiment: Reduced parasitemia in Plasmodium berghei ANKA infected BALB/c mice (Mus musculus) at 10 mg/kg peroral dose after 4 days; format: functional; parameters: scale not given: the % may be the effect or the level left; details: route oral

Structure (SMILES) | CC50 (KB) [nM] | IC50 (Plasmodium falciparum [1]) [nM] | IC50 (Plasmodium falciparum [2]) [nM] | Ratio IC50 (Plasmodium falciparum [4]) | also measured
COc1c(CN(CCNc2ccnc3cc(Cl)ccc23)C(C)C)c(C(F)(F)F)c(OC)c2ccccc12 | 35400 | 184 | 299 |  | 
CC(=O)Nc1ccc(O)c(CN(CCCNc2ccnc3cc(Cl)ccc23)C(C)C)c1 | 180000 | 22.7 | 318 |  | 
CO[C@H]1O[C@@H]2O[C@@]3(C)CC[C@H]4[C@H](C)CC[C@@H]([C@H]1C)[C@@]24OO3 |  |  |  |  | IC50 (Plasmodium falciparum [3]): 2.8 nM
COc1c(CNCCNc2ccnc3cc(Cl)ccc23)c(C(F)(F)F)c(OC)c2ccccc12 | 28500 | 128 | 16 |  | 
CC(C)(C)CNCCNc1ccnc2cc(Cl)ccc12 | 62100 | 20.6 | 6.8 | 0.3 | 
COc1c(CN(CCNc2ccnc3cc(Cl)ccc23)CC(C)C)c(C(F)(F)F)c(OC)c2ccccc12 | 11900 | 162 | 198 |  | 
COc1cc(CN(CCNc2ccnc3cc(Cl)ccc23)C(C)C)c(OC)c2ccccc12 |  | 517 | 345 |  | IC50 (KB): 67000 nM
CC(=O)Nc1ccc(O)cc1 [ACETAMINOPHEN] |  | > 198000 | 86700 | <0.4 | 
COc1c(C)c(CN(CCNc2ccnc3cc(Cl)ccc23)CC(C)(C)C)c(OC)c2ccccc12 | 10600 | 156 | 134 |  | 
CCN(CC)Cc1cc(Nc2ccnc3cc(Cl)ccc23)ccc1O.Cl |  |  | 6.4 | 0.6 | IC50 (Plasmodium falciparum [3]): 9.5 nM
CC(C)CNCCNc1ccnc2cc(Cl)ccc12 | 22500 | 22.8 | 72 | 3.1 | 
Clc1ccc2c(N3CCN(CCCN4CCN(c5ccnc6cc(Cl)ccc56)CC4)CC3)ccnc2c1 [PIPERAQUINE] |  |  |  |  | IC50 (Plasmodium falciparum [3]): 14.6 nM
Clc1ccc2c(N3CC3)ccnc2c1 | 102000 | 16000 | 39200 | 2.4 | 
CC(C)(C)CNCCNc1ccnc2cc(Cl)ccc12.Cl |  |  |  |  | Activity (Plasmodium berghei [5]): 0.86%; inhibition in vivo at 30 mg/kg (Plasmodium berghei [6]): 94.4%; Activity (Plasmodium berghei [7]): 0.31%
COc1c(C)c(Cc2ccc(CC(=O)NCCNc3ccnc4cc(Cl)ccc34)cc2)c(OC)c2ccccc12 | 11500 | 289 | 505 | 1.7 | 
COc1c(COc2ccc(NC(C)=O)cc2)c(C(F)(F)F)c(OC)c2ccccc12 | > 715000 | 6440 | 15700 | 2.4 | 
C[C@@H]1CC[C@H]2[C@@H](C)C(=O)O[C@@H]3O[C@@]4(C)CC[C@@H]1[C@]32OO4 [ARTEMISININ] |  |  |  |  | IC50 (Plasmodium falciparum [3]): 4.5 nM
COc1c(CNCCNc2ccnc3cc(Cl)ccc23)c(C(F)(F)F)c(OC)c2ccccc12.Cl |  |  |  |  | Activity (Plasmodium berghei [5]): 12.48%; inhibition in vivo at 30 mg/kg (Plasmodium berghei [6]): 18.3%; Activity (Plasmodium berghei [7]): 2.82%
Clc1ccc2c(NCCNCC3CC3)ccnc2c1 | 71900 | 2.7 | 145 | 53.7 | 
COc1c(C)c(Cc2ccc(CC(=O)N(CCNc3ccnc4cc(Cl)ccc34)C(C)C)cc2)c(OC)c2ccccc12 | 1700 | 319 | 268 | 0.8 | 
CC1=C(CCCCCC(=O)N(CCNc2ccnc3cc(Cl)ccc23)C(C)C)C(=O)c2ccccc2C1=O | 37000 | 7.5 | 9.4 | 1.1 | inhibition in vivo at 21 mg/kg (Plasmodium berghei [8]): 18.2%; Activity (Plasmodium berghei [9]): 2.65%; Activity (Plasmodium berghei [10]): 12.5%

Structure (SMILES) | CC50 (KB) [nM] | IC50 (Plasmodium falciparum [1]) [nM] | IC50 (Plasmodium falciparum [2]) [nM] | Ratio IC50 (Plasmodium falciparum [4]) | also measured
COc1cc(CNCCNc2ccnc3cc(Cl)ccc23)c(OC)c2ccccc12 | 3800 | 23.7 | 28.4 |  | 
CN(C)c1ccc2nc3ccc(N(C)C)cc3[s+]c2c1 [METHYLENE BLUE ANHYDROUS] |  |  |  |  | IC50 (Plasmodium falciparum [3]): 5.4 nM
COc1cc(CN(CCNc2ccnc3cc(Cl)ccc23)CC(C)(C)C)c(OC)c2ccccc12 | 8800 | 237 | 154 |  | 
COc1c(C)c(CN(CCNc2ccnc3cc(Cl)ccc23)C(C)C)c(OC)c2ccccc12 | 85800 | 83.7 | 105 |  | 
COc1c(C)c(CN(CCNc2ccnc3cc(Cl)ccc23)CC(C)C)c(OC)c2ccccc12 | 30600 | 183 | 40.6 |  | 
CC1=C(Cc2ccc(CC(=O)N(CCNc3ccnc4cc(Cl)ccc34)C(C)C)cc2)C(=O)c2ccccc2C1=O | 318000 | 12.4 | 5.3 | 0.4 | 
CC(C)(C)NCCNc1ccnc2cc(Cl)ccc12 | 143000 | 21.2 | 128 | 6 | 
NCCNc1ccnc2cc(Cl)ccc12 | 49600 | 4.5 | 1800 | 400 | 
CCN(CC)Cc1cc(Nc2ccnc3cc(Cl)ccc23)ccc1OCc1c(C(F)(F)F)c(OC)c2ccccc2c1OC | 15000 | 32 | 32 | 1 | 
COc1c(C)c(CNCCNc2ccnc3cc(Cl)ccc23)c(OC)c2ccccc12 | 5100 | 229 | 22.9 |  | 
CC(C)(C)NC(=O)CNc1ccnc2cc(Cl)ccc12 | 194000 | 994 | 1440 | 1.4 | 
COc1cc(CN(CCNc2ccnc3cc(Cl)ccc23)CC(C)C)c(OC)c2ccccc12 | 43800 | 146 | 188 |  | 
COc1c(CN(CCNc2ccnc3cc(Cl)ccc23)CC(C)(C)C)c(C(F)(F)F)c(OC)c2ccccc12 | 12000 | 146 | 116 |  | 
COc1cc([C@@H]2c3cc4c(cc3[C@H](O)[C@H]3COC(=O)[C@H]23)OCO4)cc(OC)c1OC [PODOFILOX] | 49600 |  |  |  | 
CCN(CC)CCCC(C)Nc1ccnc2cc(Cl)ccc12 (stereo unspecified) [CHLOROQUINE] | 127000 |  |  |  | inhibition in vivo at 10 mg/kg (Plasmodium berghei [11]): 99.2%; Activity (Plasmodium berghei [12]): 0.13%
CC(C)NCCCNc1ccnc2cc(Cl)ccc12 | 47900 | 3.6 | 144 | 40 | 
CC1=C(CCCCCC(=O)NCCNc2ccnc3cc(Cl)ccc23)C(=O)c2ccccc2C1=O | 22200 | 184 | 367 | 2 | 
CC(C)NCCNc1ccnc2cc(Cl)ccc12 | 89800 | 10.2 | 96.7 | 9.5 | 
COc1c(C)c(CCCCCC(=O)N(CCNc2ccnc3cc(Cl)ccc23)C(C)C)c(OC)c2ccccc12 | 6900 | 52.8 | 302 | 5.7 | 
O[C@@H](c1cc(C(F)(F)F)nc2c(C(F)(F)F)cccc12)[C@H]1CCCCN1 [MEFLOQUINE] |  |  |  |  | IC50 (Plasmodium falciparum [3]): 4.85 nM
